# Results reported in patent US20250042925A1, “Improved Compositions and Methods for Targeting Mitochondria in Cancer Cells” (The Medical College of Wisconsin, Inc., priority 2021, published 2025).
# Columns and labels:
# [1] = tested on: KPC1242, Panc-1, AsPC-1, HCT-116, MDA-MB-231, OVCAR-4, OVCAR-8 cancer cell lines; test: Cell growth (IncuCyte confluence) in cancer cell lines; format: cell-based, murine, human; conditions: for cell confluency: increasing concentrations 0.1 μM-10 μM, each of the cancer cells
# Text: (§1) Murine pancreatic cancer cells KPC1242 (David Tuveson, Cold Spring Harbor), human pancreatic cancer cells, Panc-1 (ATCC: CRL-1469), human breast cancer cells MDA-MB-231 (ATCC: CRM-HTB-26), and human pancreatic stellate cells HPSC (Rosa F. Hwang, MD Anderson cancer) were all cultured in DMEM (Gibco ThermoFisher Scientific, Waltham, MA, Cat #11965084) containing 10% v/v fetal bovine serum (Omega Scientific, Inc., Tarzana, CA, Cat #FB-12). Human pancreatic cancer cells AsPC-1 (ATCC: CRL-1682), human ovarian cancer cells OVCAR-8 (NIH: CVCL-1629), and human ovarian cancer cells OVCAR-4 (NIH: CVCL-1627) were all cultured in DMEM (Gibco, Cat #22400089) containing 10% v/v fetal bovine serum (Omega Scientific). Human colon cancer cells HCT-116 (ATCC: CCL-247) were cultured in McCoy's 5A Modified Medium (Gibco, Cat #16600082) containing 10% v/v fetal bovine serum (Omega Scientific). Human pancreatic duct epithelial cells HPNE (ATCC: CRL-4023) were cultured in DMEM and 200 mM L-Glutamine and 7.5% w/v NaCO3 further supplemented with 15% v/v fetal bovine serum, M3-Base A (Incell, San Antonio, TX), 1M D-Glucose (Gibco Cat #J60067.EQE), 100 μg/mL human EGF (Gibco Cat #PHG0313) and 10 mg/mL puromycin (ThermoFisher, Cat #A1113802).
# C57BL/6J mice = test: Tolerability in non-tumor-bearing mice; format: in vivo; conditions: for tolerability of repeated injection: daily for 5 consecutive days, 25 μg/mouse to 1 mg/mouse
# Procedure: FIGS. 6A-6I show pCF3-MMe inhibits tumor growth with enhanced biosafety relative to MMe. C57BL/6J mice were treated with 1 mg MMe, 1 mg pCF3-MMe, 1 mg MMe, 250 μg MMe, 100 μg MMe, 50 μg MMe, or 25 μg MMe for 6 hours (FIG. 6A) or 5 days (FIG. 6D). Kaplan-Meier survival curve of mice treated for 6 hours (FIG. 6B) or 5 days […], n=3-5. Numbers of mice surviving over time after a single injection (FIG. 6C) or 5 repeated doses (FIG. 6F). Significance was determined using a Mantel-Cox test (*, p<0.05; **, p<0.01). KPC1242 murine pancreatic cancer engrafted mice were treated with 1 mg pCF3-MMe or vehicle 5 days on and 2 days off (FIG. 6G). Tumors isolated from vehicle and treated mice were pictured (FIG. 6H). Tumor volume was measured ex vivo from vehicle and pCF3-MMe-treated mice (FIG. 6I). Values are mean±SD. Significant differences were determined by Student's t-test (*, p<0.05).
# With the ability to detect pCF3-MMe in vitro and in vivo in hand, along with anti-tumor properties and decreased toxicity towards non-transformed cells in culture, we next compared the tolerability of pCF3-MMe in mice. Non-tumor-bearing mice received an intraperitoneal injection with decreasing amounts (1 mg, 250 μg, 100 μg, 50 μg, or 25 μg) of unsubstituted MMe or pCF3-MMe. […] […].
# Given the strong safety shown from a single injection, further studies were conducted to determine if mice tolerated repeated injection using our published treatment schedule by injecting non-tumor-bearing mice daily for 5 consecutive days with doses ranging from as little as 25 μg/mouse to as much as 1 mg/mouse […] (FIG. 6D). […] Since 1 mg/mouse pCF3-MMe was well tolerated in tumor-free animals, further studies were conducted to test if pCF3-MMe could inhibit tumor growth in vivo. Mice were implanted with murine cancer cells and injected 17 days after engraftment with 1 mg pCF3-MMe (FIG. 6G). […] Taken together, trifluoromethylation of TPP^+ improves the reproducible detection, quantitative measurement, and safety profile of TPP^+-conjugated compounds while retaining potent anti-tumor effects in vivo.
# KPC1242 cells [2] = test: Luminescent ATP detection assay; format: cell-based, murine; conditions: 24 hours; 0.7 μM MMe or 3 μM pCF3-MMe
# Procedure: The functional consequence of inhibiting mitochondria complex I and subsequently OXPHOS is a reduction of overall ATP levels in the cell. The ability of MMe to reduce ATP levels was previously reported in numerous cancer cell types. Thus, further studies were conducted to explore if pCF3-MMe retained similar properties. […] Cells, including cancer cells, must maintain a high ATP:ADP ratio to maintain cellular functions and survival. Moreover, AMP levels rise whenever the ATP:ADP ratio decreases, and an increase in the AMP:ATP ratio signals an energetic crisis in the cell. This energetic crisis is sensed by the master regulator AMP-Activated Protein Kinase (AMPK), which is activated through Thr172 phosphorylation and controls many signaling pathways ranging from energy metabolism to cellular growth. Therefore, further studies were conducted to evaluate if the reduction in ATP levels induced by MMe or pCF3-MMe is sufficient to activate AMPK.
# Intracellular ATP levels were determined in cell lysates using a Luminescent ATP Detection Assay Kit per the manufacturer's directions (Abcam, Cambridge, UK, Cat #ab113849).
# [3] = tested on: HPNE and HPSC non-transformed cells; test: Cell growth (confluence) of normal non-transformed cells; format: cell-based, human; conditions: for sensitivity of normal non-transformed cells compared to cancer cells: HPNE, HPSC versus cancer cells
# Procedure: To test the off-target effects of the refined MMe analogs on normal non-transformed cells, the growth of HPNE cells (FIGS. 11A, 11D, and 11G), used as a surrogate for normal pancreatic ductal epithelium, or normal stromal HPSC cells (FIGS. 11B, 11E, and 11H) were measured in increasing concentrations of MMe, pCF3-MMe, or mCF3-MMe and compared to the vehicle control.
# as §1
# KPC1242 cells [4] = test: Seahorse Cell Mito Stress Test (oxygen consumption rate); format: cell-based, murine; conditions: 24 hours treatment, increasing concentrations
# Procedure: To determine if the newly synthesized variants retain this functional specificity, further studies were conducted to determine if pCF3-MMe effectively impacts mitochondrial function and/or induces bioenergetic stress. KPC1242 cells were treated for 24 hours with increasing concentrations of MMe or pCF3-MMe, and oxygen consumption rate (OCR) was measured as a surrogate for oxidative phosphorylation linked mitochondrial respiration.
# Cells were plated to Seahorse XF96 cell culture microplates at 20,000 cells/well. Stock compounds in DMSO were diluted in RPMI medium to a final concentration in […] volume, incubated at 37° C. for 24 hours, centrifuged at 200×g for 2 minutes, and conditioned medium removed and replaced with serum-free RPMI […]. Oxygen consumption (OCR) and extracellular flux (ECAR) were measured after injections of oligomycin (1 mg/mL), dinitrophenol […], rotenone […], and antimycin A […]. Analysis was performed by normalizing OCR and ECAR readouts to vehicle controls. Complex I and II activity were analyzed after permeabilization of the cells.
SMILES,cell confluency [1],tolerability of repeated injection (C57BL/6J mice),"tolerability after a single injection (C57BL/6J mice; single intraperitoneal injection, MMe 250 μg or 1 mg, metformin 1 mg)",levels of ATP (KPC1242 cells [2]),sensitivity of normal non-transformed cells compared to cancer cells [3],"basal OCR, ATP-linked respiration, and maximal respiratory capacity (KPC1242 cells [4])",efficacy compared to MMe in several types of cancer [1],mice surviving (C57BL/6J mice; single intraperitoneal injection of 1 mg),reduction in toxicity to normal cells compared to MMe [3],toxic effects towards non-transformed HPNE and HPSC-1 cells ([3]; compared to the parent MMe and the mCF3-MMe analog)
"N=C(N)NC(=N)NCCCCCCCCCC[P+](c1ccccc1)(c1ccccc1)c1ccccc1.[Br-] [MMe, 10-[(carbamimidamidomethanimidoyl)amino]decyl-triphenylphosphonium bromide, reference compound]",decreased in a concentration-dependent manner,succumbed to 4-fold lower doses,significant and rapid mortality,significantly reduced,more than a log less sensitive,concentration-dependent decrease,,,,
"N=C(N)NC(=N)NCCCCCCCCCC[P+](c1ccc(C(F)(F)F)cc1)(c1ccc(C(F)(F)F)cc1)c1ccc(C(F)(F)F)cc1.[Br-] [pCF3-MMe, (10-(3-carbamimidoylguanidino)decyl)tris(4-(trifluoromethyl)phenyl)phosphonium bromide]",decreased in a concentration-dependent manner,tolerated a 1 mg dose,,significantly reduced,more than a log less sensitive,concentration-dependent decrease,only a slight change in efficacy,100%,~10 fold,least toxic effects
